# From PubChem BioAssay (NCI)
#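 Values below derive from 48-hour exposures of cells grown in 96-well plates, with endpoints linearly interpolated between the two concentrations bracketing the appropriate inhibition level. TGI: total growth inhibition.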
# Test system: NCI-H460 lung
# Test: NCI-60 cell line screen, 48 h
row,SMILES,TGI
1,C[C@H]1C=C2[C@@H]3CC(C)(C(=O)O)CC[C@]3(C)CC[C@]2(C)[C@]2(C)CC[C@H]3C(C)(C)[C@@H](OC(=O)c4cccc5c(=O)c6ccccc6[nH]c45)CC[C@]3(C)[C@@H]12 (stereo partly drawn),> 100 µM
2,COC(=O)c1c(OC(C)=O)ccc2c1c1c(OC(C)=O)c3ccccc3c(OC(C)=O)c1n2Cc1ccccc1,> 50 µM
3,CN(C)CCCN1c2ccccc2CCc2ccc([N+](=O)[O-])cc21,42.3 µM
4,COc1ccc(N=C2C(=Nc3ccc(OC)cc3)N(c3ccccc3)C(=S)N2N=C=C2Sc3ccccc3N2C)cc1,> 100 µM
5,CCOC(=O)CSc1nnc(C(Sc2nc(-c3ccccc3)c(-c3ccccc3)[nH]2)C(C)C)n1-c1ccccc1 (stereo not drawn),> 31.6 µM
6,CC(C)(C)OC(=O)NCCC1CN(C(=O)c2ccccc2)c2ccccc21 (stereo not drawn),56.3 µM
7,COC(=O)C1=C(OC(=O)c2ccccc2)C(C(=O)OC)[C@]2(O)[C@@H](C(=O)OC)[C@H]1C[C@@H](c1ccccc1)[C@@H]2C(=O)OC (stereo partly drawn),42.4 µM
8,O=C(/C=C/c1csc(-c2ccccc2)n1)NCc1ccc(C(=O)NCc2ccccc2)cc1,> 100 µM

# Test system: NCI/ADR-RES ovarian
# Test: NCI-60 cell line screen, 48 h
row,SMILES,TGI
1,COc1ccc(-n2cnc3c(NC(CCSC)C(=O)O)ncnc32)cc1 (stereo not drawn),> 100 µM
2,COC(=O)C1=C(C)N2[C@H](C(=O)O)CO[C@@]2(C)[C@H](C(=O)OC)[C@H]1c1cccc([N+](=O)[O-])c1,> 100 µM
3,Cc1ccc(/C=C2\CCCC(CN3CCCCC3)C2=O)cc1 (stereo not drawn),42.5 µM
4,OC(c1ccc(-c2ccccc2)cc1)C(F)(F)c1nc2ccccc2o1 (stereo not drawn),> 100 µM
5,O=C(CC(=O)Nc1ccccc1)N/N=C/c1cc(N=Nc2ccc(Br)cc2)ccc1O,> 10 µM
6,CCC[C@H](C)C[C@H](C)C[C@H](C)/C=C(\C)[C@@H](O)[C@@H](C)C(=O)CC,30.9 µM
7,FC(F)(F)c1ccc2nc(Sc3ccccn3)cnc2c1,> 100 µM
8,Nc1ccc(CCN2CCN(CCCc3ccccc3)CC2)cc1,> 100 µM
9,C[C@H]1C=C2[C@@H]3CC(C)(C(=O)O)CC[C@]3(C)CC[C@]2(C)[C@]2(C)CC[C@H]3C(C)(C)[C@@H](OC(=O)c4cccc5c(=O)c6ccccc6[nH]c45)CC[C@]3(C)[C@@H]12 (stereo partly drawn),> 100 µM
10,COC(=O)c1c(OC(C)=O)ccc2c1c1c(OC(C)=O)c3ccccc3c(OC(C)=O)c1n2Cc1ccccc1,46.6 µM
11,CN(C)CCCN1c2ccccc2CCc2ccc([N+](=O)[O-])cc21,42.1 µM
12,COc1ccc(N=C2C(=Nc3ccc(OC)cc3)N(c3ccccc3)C(=S)N2N=C=C2Sc3ccccc3N2C)cc1,> 100 µM
13,CCOC(=O)CSc1nnc(C(Sc2nc(-c3ccccc3)c(-c3ccccc3)[nH]2)C(C)C)n1-c1ccccc1 (stereo not drawn),84 µM
14,CC(C)(C)OC(=O)NCCC1CN(C(=O)c2ccccc2)c2ccccc21 (stereo not drawn),57.5 µM
15,COC(=O)C1=C(OC(=O)c2ccccc2)C(C(=O)OC)[C@]2(O)[C@@H](C(=O)OC)[C@H]1C[C@@H](c1ccccc1)[C@@H]2C(=O)OC (stereo partly drawn),14.1 µM
16,O=C(/C=C/c1csc(-c2ccccc2)n1)NCc1ccc(C(=O)NCc2ccccc2)cc1,> 100 µM

# Test system: SK-MEL-5 melanoma
# Test: NCI-60 cell line screen, 48 h
row,SMILES,TGI
1,COc1ccc(-n2cnc3c(NC(CCSC)C(=O)O)ncnc32)cc1 (stereo not drawn),> 100 µM
2,COC(=O)C1=C(C)N2[C@H](C(=O)O)CO[C@@]2(C)[C@H](C(=O)OC)[C@H]1c1cccc([N+](=O)[O-])c1,> 100 µM
3,Cc1ccc(/C=C2\CCCC(CN3CCCCC3)C2=O)cc1 (stereo not drawn),17.4 µM
4,OC(c1ccc(-c2ccccc2)cc1)C(F)(F)c1nc2ccccc2o1 (stereo not drawn),> 100 µM
5,O=C(CC(=O)Nc1ccccc1)N/N=C/c1cc(N=Nc2ccc(Br)cc2)ccc1O,> 10 µM
6,CCC[C@H](C)C[C@H](C)C[C@H](C)/C=C(\C)[C@@H](O)[C@@H](C)C(=O)CC,36.1 µM
7,FC(F)(F)c1ccc2nc(Sc3ccccn3)cnc2c1,66.2 µM
8,Nc1ccc(CCN2CCN(CCCc3ccccc3)CC2)cc1,> 100 µM
9,C[C@H]1C=C2[C@@H]3CC(C)(C(=O)O)CC[C@]3(C)CC[C@]2(C)[C@]2(C)CC[C@H]3C(C)(C)[C@@H](OC(=O)c4cccc5c(=O)c6ccccc6[nH]c45)CC[C@]3(C)[C@@H]12 (stereo partly drawn),> 100 µM
10,COC(=O)c1c(OC(C)=O)ccc2c1c1c(OC(C)=O)c3ccccc3c(OC(C)=O)c1n2Cc1ccccc1,9.47 µM
11,CN(C)CCCN1c2ccccc2CCc2ccc([N+](=O)[O-])cc21,31.4 µM
12,COc1ccc(N=C2C(=Nc3ccc(OC)cc3)N(c3ccccc3)C(=S)N2N=C=C2Sc3ccccc3N2C)cc1,> 100 µM
13,CCOC(=O)CSc1nnc(C(Sc2nc(-c3ccccc3)c(-c3ccccc3)[nH]2)C(C)C)n1-c1ccccc1 (stereo not drawn),> 10 µM
14,CC(C)(C)OC(=O)NCCC1CN(C(=O)c2ccccc2)c2ccccc21 (stereo not drawn),32 µM
15,COC(=O)C1=C(OC(=O)c2ccccc2)C(C(=O)OC)[C@]2(O)[C@@H](C(=O)OC)[C@H]1C[C@@H](c1ccccc1)[C@@H]2C(=O)OC (stereo partly drawn),17.4 µM
16,O=C(/C=C/c1csc(-c2ccccc2)n1)NCc1ccc(C(=O)NCc2ccccc2)cc1,> 100 µM

# Test system: SK-OV-3 ovarian
# Test: NCI-60 cell line screen, 48 h
row,SMILES,TGI
1,COc1ccc(-n2cnc3c(NC(CCSC)C(=O)O)ncnc32)cc1 (stereo not drawn),> 100 µM
2,COC(=O)C1=C(C)N2[C@H](C(=O)O)CO[C@@]2(C)[C@H](C(=O)OC)[C@H]1c1cccc([N+](=O)[O-])c1,> 100 µM
3,Cc1ccc(/C=C2\CCCC(CN3CCCCC3)C2=O)cc1 (stereo not drawn),30.1 µM
4,OC(c1ccc(-c2ccccc2)cc1)C(F)(F)c1nc2ccccc2o1 (stereo not drawn),> 100 µM
5,O=C(CC(=O)Nc1ccccc1)N/N=C/c1cc(N=Nc2ccc(Br)cc2)ccc1O,> 10 µM
6,CCC[C@H](C)C[C@H](C)C[C@H](C)/C=C(\C)[C@@H](O)[C@@H](C)C(=O)CC,> 100 µM
7,FC(F)(F)c1ccc2nc(Sc3ccccn3)cnc2c1,> 100 µM
8,Nc1ccc(CCN2CCN(CCCc3ccccc3)CC2)cc1,> 100 µM
9,C[C@H]1C=C2[C@@H]3CC(C)(C(=O)O)CC[C@]3(C)CC[C@]2(C)[C@]2(C)CC[C@H]3C(C)(C)[C@@H](OC(=O)c4cccc5c(=O)c6ccccc6[nH]c45)CC[C@]3(C)[C@@H]12 (stereo partly drawn),> 100 µM
10,COC(=O)c1c(OC(C)=O)ccc2c1c1c(OC(C)=O)c3ccccc3c(OC(C)=O)c1n2Cc1ccccc1,19.5 µM
11,CN(C)CCCN1c2ccccc2CCc2ccc([N+](=O)[O-])cc21,> 100 µM
12,COc1ccc(N=C2C(=Nc3ccc(OC)cc3)N(c3ccccc3)C(=S)N2N=C=C2Sc3ccccc3N2C)cc1,> 100 µM
13,CCOC(=O)CSc1nnc(C(Sc2nc(-c3ccccc3)c(-c3ccccc3)[nH]2)C(C)C)n1-c1ccccc1 (stereo not drawn),> 10 µM
14,CC(C)(C)OC(=O)NCCC1CN(C(=O)c2ccccc2)c2ccccc21 (stereo not drawn),> 100 µM
15,COC(=O)C1=C(OC(=O)c2ccccc2)C(C(=O)OC)[C@]2(O)[C@@H](C(=O)OC)[C@H]1C[C@@H](c1ccccc1)[C@@H]2C(=O)OC (stereo partly drawn),48.3 µM
16,O=C(/C=C/c1csc(-c2ccccc2)n1)NCc1ccc(C(=O)NCc2ccccc2)cc1,> 100 µM

# Test system: TK-10 renal
# Test: NCI-60 cell line screen, 48 h
row,SMILES,TGI
1,COc1ccc(-n2cnc3c(NC(CCSC)C(=O)O)ncnc32)cc1 (stereo not drawn),> 100 µM
2,COC(=O)C1=C(C)N2[C@H](C(=O)O)CO[C@@]2(C)[C@H](C(=O)OC)[C@H]1c1cccc([N+](=O)[O-])c1,> 100 µM
3,Cc1ccc(/C=C2\CCCC(CN3CCCCC3)C2=O)cc1 (stereo not drawn),7.44 µM
4,OC(c1ccc(-c2ccccc2)cc1)C(F)(F)c1nc2ccccc2o1 (stereo not drawn),> 100 µM
5,O=C(CC(=O)Nc1ccccc1)N/N=C/c1cc(N=Nc2ccc(Br)cc2)ccc1O,> 10 µM
6,CCC[C@H](C)C[C@H](C)C[C@H](C)/C=C(\C)[C@@H](O)[C@@H](C)C(=O)CC,38.3 µM
7,FC(F)(F)c1ccc2nc(Sc3ccccn3)cnc2c1,> 100 µM
8,Nc1ccc(CCN2CCN(CCCc3ccccc3)CC2)cc1,> 100 µM
9,C[C@H]1C=C2[C@@H]3CC(C)(C(=O)O)CC[C@]3(C)CC[C@]2(C)[C@]2(C)CC[C@H]3C(C)(C)[C@@H](OC(=O)c4cccc5c(=O)c6ccccc6[nH]c45)CC[C@]3(C)[C@@H]12 (stereo partly drawn),> 100 µM
10,COC(=O)c1c(OC(C)=O)ccc2c1c1c(OC(C)=O)c3ccccc3c(OC(C)=O)c1n2Cc1ccccc1,> 50 µM
11,CN(C)CCCN1c2ccccc2CCc2ccc([N+](=O)[O-])cc21,41.8 µM
12,COc1ccc(N=C2C(=Nc3ccc(OC)cc3)N(c3ccccc3)C(=S)N2N=C=C2Sc3ccccc3N2C)cc1,> 100 µM
13,CCOC(=O)CSc1nnc(C(Sc2nc(-c3ccccc3)c(-c3ccccc3)[nH]2)C(C)C)n1-c1ccccc1 (stereo not drawn),> 31.6 µM
14,CC(C)(C)OC(=O)NCCC1CN(C(=O)c2ccccc2)c2ccccc21 (stereo not drawn),> 100 µM
15,COC(=O)C1=C(OC(=O)c2ccccc2)C(C(=O)OC)[C@]2(O)[C@@H](C(=O)OC)[C@H]1C[C@@H](c1ccccc1)[C@@H]2C(=O)OC (stereo partly drawn),69.9 µM
16,O=C(/C=C/c1csc(-c2ccccc2)n1)NCc1ccc(C(=O)NCc2ccccc2)cc1,85.8 µM

# Test system: U251 CNS
# Test: NCI-60 cell line screen, 48 h
row,SMILES,TGI
1,COc1ccc(-n2cnc3c(NC(CCSC)C(=O)O)ncnc32)cc1 (stereo not drawn),> 100 µM
2,COC(=O)C1=C(C)N2[C@H](C(=O)O)CO[C@@]2(C)[C@H](C(=O)OC)[C@H]1c1cccc([N+](=O)[O-])c1,> 100 µM
3,Cc1ccc(/C=C2\CCCC(CN3CCCCC3)C2=O)cc1 (stereo not drawn),27.3 µM
4,OC(c1ccc(-c2ccccc2)cc1)C(F)(F)c1nc2ccccc2o1 (stereo not drawn),> 100 µM
5,O=C(CC(=O)Nc1ccccc1)N/N=C/c1cc(N=Nc2ccc(Br)cc2)ccc1O,> 10 µM
6,CCC[C@H](C)C[C@H](C)C[C@H](C)/C=C(\C)[C@@H](O)[C@@H](C)C(=O)CC,44.7 µM
7,FC(F)(F)c1ccc2nc(Sc3ccccn3)cnc2c1,42.3 µM
8,Nc1ccc(CCN2CCN(CCCc3ccccc3)CC2)cc1,> 100 µM
9,C[C@H]1C=C2[C@@H]3CC(C)(C(=O)O)CC[C@]3(C)CC[C@]2(C)[C@]2(C)CC[C@H]3C(C)(C)[C@@H](OC(=O)c4cccc5c(=O)c6ccccc6[nH]c45)CC[C@]3(C)[C@@H]12 (stereo partly drawn),> 100 µM
10,COC(=O)c1c(OC(C)=O)ccc2c1c1c(OC(C)=O)c3ccccc3c(OC(C)=O)c1n2Cc1ccccc1,17.3 µM
11,CN(C)CCCN1c2ccccc2CCc2ccc([N+](=O)[O-])cc21,> 100 µM
12,COc1ccc(N=C2C(=Nc3ccc(OC)cc3)N(c3ccccc3)C(=S)N2N=C=C2Sc3ccccc3N2C)cc1,> 100 µM
13,CCOC(=O)CSc1nnc(C(Sc2nc(-c3ccccc3)c(-c3ccccc3)[nH]2)C(C)C)n1-c1ccccc1 (stereo not drawn),> 10 µM
14,CC(C)(C)OC(=O)NCCC1CN(C(=O)c2ccccc2)c2ccccc21 (stereo not drawn),> 100 µM
15,COC(=O)C1=C(OC(=O)c2ccccc2)C(C(=O)OC)[C@]2(O)[C@@H](C(=O)OC)[C@H]1C[C@@H](c1ccccc1)[C@@H]2C(=O)OC (stereo partly drawn),20.8 µM
16,O=C(/C=C/c1csc(-c2ccccc2)n1)NCc1ccc(C(=O)NCc2ccccc2)cc1,> 100 µM
